Patent US20030195161A1, “Composition comprising camptothecin or a camptothecin derivative and a topoisomerase II inhibitor for the treatment of cancer” (priority 2000, published 2003)
Read-outs that look alike come from different tables or passages of the source. Marks after values point to notes of the source that are not given here.

Columns and labels:
[1] = tested on: P388; format: in vivo, mice; conditions: highest non-toxic dose
Description: (§1) Cross-resistance between various agents was measured in murine leukemia cell lines. P388/CPT is a camptothecin-resistant leukemia that was established in vitro (Biochem. Pharmacol., 45: 339 (1993)) and maintained in vivo by i.p. passages in DBA2 female mice. The chemosensitivity of i.p. P388/CPT was evaluated with i.v. P388 sensitive reference drugs with different mechanisms of action. Antitumor efficacy was determined at the highest non-toxic dose as percent increase in life span (ILS), where:
(§2) ILS=100×[(median day of death (MDD) of treated mice)−(MDD control mice)][…]
(§3) A minimal level of activity equals an ILS of greater than 26%. P388/CPT was found resistant to camptothecin s.c. and CPT-11, but sensitive to both doxorubicin and etoposide. […] Table II tabulates the results from this study.

[2] = tested on: MA16/C, sc; conditions: mouse, in vivo
Description: (§6) The effectiveness of irinotecan combination chemotherapy methods was tested in a dose response study in a murine tumor model. Three arms were evaluated for tolerance and efficacy. Tolerance was measured by mortality, body weight loss at nadir, host recovery time, and combination toxicity index. Efficacy end points for solid tumor models were tumor growth delay (T/C), log10 cell kill (LCK, defined above), tumor regressions (i.e., complete remission (CR),or partial remission (PR)).
(§7) The LD10 for the single agent was obtained by plotting the toxicity of that agent and the dosage in mg/kg as a log probit graph. Subsequently, the CTI LD10 was obtained by plotting as a log probit graph the observed lethality and the corresponding CTI calculated as the sum of the fraction of the LD10 of each single agent.

[3] = tested on: P388/CPT; assay: Percent increase in life span, camptothecin-resistant i.p. P388/CPT leukemia (Example 2); format: in vivo, mice; conditions: for Comment (chemosensitivity of P388/CPT): minimal activity = ILS greater than 26%; for % ILS: i.p. P388/CPT, highest non-toxic dose
Description: as §1, §2, §3

[4] = tested on: MA16/C, sc; assay: Dose response combination study, MA16/C sc (Example 5)
Description: as §6, §7

[5] = tested on: P03, sc; assay: Dose response combination study, P03 sc (Example 5); format: in vivo, murine
Description: Three arms were evaluated for tolerance and efficacy.

[6] = tested on: C26; conditions: C26 (BALB/c); for LCK: at optimal total dose
Description: (§4) This efficacy may be quantified, for example by the log10 cell kill, which is determined by the following formula: […]
(§5) in which T−C represents the time taken for the cells to grow, which is the mean time in days for the tumors of the treated group (T) to reach a predetermined value (1 g for example) and the tumors of the control group (C) to reach the same value, and Td represents the time in days needed for the volume of the tumors in the control group to double. […] A product is considered to be active if the log10 cell kill is greater than or equal to 0.7. A product is considered to be very active if the log10 cell kill is greater than 2.8.

[7] = tested on: C51; conditions: C51 (BALB/c), days 5, 7, 9, 13, 15, twice daily; for LCK: at optimal total dose
Description: as §4, §5

[8] = tested on: P03; conditions: P03 (B6D2F1), twice daily; for LCK: at optimal total dose
Description: as §4, §5

[9] = tested on: GOS; conditions: GOS (B6D2F1); for LCK: at optimal total dose
Description: as §4, §5

[10] = tested on: MA16/C; conditions: MA16/C (C3H/HeN); for Optimal Total Dose: days 5-9; for LCK: days 5-9, at optimal total dose
Description: as §4, §5

[11] = Tolerance of oral and i.v. irinotecan in tumor bearing mice (Example 1); format: in vivo; conditions: oral and intravenous
[12] = tested on: Pancreatic Ductal Adenocarcinoma P03
Description: In the first arm, three doses of CPT were given orally on days six through nine, twice a day. In the second arm, three doses of doxorubicin were given intravenously on days six and nine. In the combination third arm, five dosage levels of CPT-11 were administered orally on days six through nine, twice a day, with administration of five dosage levels of doxorubicin intravenously on days six and nine. This third arm illustrated an example of semi-simultaneous administration. In all three arms, the two daily administrations of CPT-11 were given four hours apart.

[13] = CPT-11 p.o. 38.8 mg/kg/adm, days 6-9 (twice/day)
[14] = CPT-11 p.o. 62.5 mg/kg/adm, days 6-9 (twice/day)
[15] = CPT-11 p.o. 100.8 mg/kg/adm, days 6-9 (twice/day)
[16] = Doxorubicin i.v. 3.8 mg/kg/adm, days 6, 9
[17] = Doxorubicin i.v. 6.2 mg/kg/adm, days 6, 9
[18] = Doxorubicin i.v. 10.0 mg/kg/adm, days 6, 9

**Q.** What does the source list for COc1cc([C@@H]2c3cc4c(cc3[C@@H](O[C@@H]3O[C@@H]5CO[C@@H](C)O[C@H]5[C@H](O)[C@H]3O)[C@H]3COC(=O)[C@H]23)OCO4)cc(OC)c1O [etoposide]?
**A.** % ILS ([1]; P388, agent i.v.): 127%; HNTD Dose [2]: 90.0 mg/kg; Comment (chemosensitivity of P388/CPT) ([3]; agent i.v.): sensitive; % ILS ([3]; agent i.v.): 121%; LCK ([4]; mouse, in vivo): 2.2

**Q.** With CCc1c2c(nc3ccc(OC(=O)N4CCC(N5CCCCC5)CC4)cc13)-c1cc3c(c(=O)n1C2)COC(=O)[C@]3(O)CC [CPT-11, irinotecan] as the compound, how does the LCK ([5]; CPT-11 p.o. single agent at HNTD 806 mg/kg, days 6-9 twice daily) read?
**A.** Its LCK is 1.3.

**Q.** What about the “HNTD Dose” value ([5]; CPT-11 p.o. single agent, days 6-9 twice daily) of the same compound?
**A.** Its value is 806 mg/kg.

**Q.** And the “% ILS” value ([1]; P388, agent i.v.)?
**A.** The value was 91%.

**Q.** What about the “Optimal Total Dose” value ([6]; i.v., twice daily) of the same compound?
**A.** Its value is 228 mg/kg.

**Q.** And the LCK ([6]; i.v., twice daily)?
**A.** The LCK was 0.7.

**Q.** And the “Optimal Total Dose” value ([6]; oral, days 3-7 twice daily)?
**A.** Its value is 558 mg/kg.

**Q.** What about the LCK ([6]; oral, days 3-7 twice daily) of the same compound?
**A.** The LCK was 0.9.

**Q.** What about the “Optimal Total Dose” value ([7]; i.v.) of the same compound?
**A.** The value was 615 mg/kg.

**Q.** What about the LCK ([7]; i.v.) of the same compound?
**A.** Its LCK is 3.0.

**Q.** What about the “Optimal Total Dose” value ([7]; oral) of the same compound?
**A.** Its value is 845 mg/kg.

**Q.** And the LCK ([7]; oral)?
**A.** Its LCK is 2.5.

**Q.** And the “Optimal Total Dose” value ([8]; i.v.)?
**A.** Its value is 346.2 mg/kg.

**Q.** And the “tumor free survivor on day 120” value ([8]; i.v., 346.2 mg/kg total)?
**A.** Its value is “†1/5 tumor free survivor on day 120”.

**Q.** What about the LCK ([8]; i.v.) of the same compound?
**A.** The LCK was 3.2†.

**Q.** And the “Optimal Total Dose” value ([8]; oral)?
**A.** Its value is 900 mg/kg.

**Q.** And the “tumor free survivor on day 120” value ([8]; oral, 900 mg/kg total)?
**A.** The value was “†1/5 tumor free survivor on day 120”.

**Q.** What about the LCK ([8]; oral) of the same compound?
**A.** Its LCK is 3.4†.

**Q.** And the “Optimal Total Dose” value ([9]; i.v., days 3, 5, 7 twice daily)?
**A.** The value was 346.2 mg/kg.

**Q.** What about the LCK ([9]; i.v., days 3, 5, 7 twice daily) of the same compound?
**A.** Its LCK is 2.2.

**Q.** And the “Optimal Total Dose” value ([9]; oral, days 3-7, twice daily)?
**A.** Its value is 900 mg/kg.

**Q.** What about the LCK ([9]; oral, days 3-7, twice daily) of the same compound?
**A.** The LCK was 2.1.

**Q.** What about the “Optimal Total Dose” value ([10]; i.v.) of the same compound?
**A.** Its value is 130.5 mg/kg.

**Q.** What about the LCK ([10]; i.v.) of the same compound?
**A.** Its LCK is 2.6.

**Q.** What about the “Optimal Total Dose” value ([10]; oral) of the same compound?
**A.** The value was 230.5 mg/kg.

**Q.** What about the LCK ([10]; oral) of the same compound?
**A.** The LCK was 2.7.

**Q.** What about the nadir ([11]; days post last administration) of the same compound?
**A.** Its nadir is 7 days.

**Q.** And the recovery ([11]; days post nadir (i.e., 12 days post first administration))?
**A.** Its recovery is 5 days.

**Q.** What about the body weight loss ([11]; similar tolerance) of the same compound?
**A.** Its body weight loss is 8.5%.

**Q.** And the “Comment (chemosensitivity of P388/CPT)” value ([3]; agent i.v.)?
**A.** Its value is “resistant”.

**Q.** And the “% ILS” value ([3]; agent i.v.)?
**A.** Its value is 0%.

**Q.** And the LCK ([4]; CPT-11 p.o. single agent at HNTD 198.5 mg/kg, MA16/C sc, days 3-7)?
**A.** Its LCK is 2.0.

**Q.** And the “HNTD Dose” value ([4]; CPT-11 p.o. single agent, MA16/C sc, days 3-7)?
**A.** Its value is 198.5 mg/kg.

**Q.** And the Comments [12, 13]?
**A.** The Comments was “Inactive”.

**Q.** And the Log10 cell kill [12, 13]?
**A.** Its Log10 cell kill is 0.5.

**Q.** What about the T-C [12, 13] of the same compound?
**A.** Its T-C is 4.0 days.

**Q.** And the “Time for median tumor to reach 1000 mg” value [12, 13]?
**A.** The value was 20.4 days.

**Q.** And the Comments [12, 14]?
**A.** The Comments was “Active”.

**Q.** What about the Log10 cell kill [12, 14] of the same compound?
**A.** Its Log10 cell kill is 1.2.

**Q.** What about the T-C [12, 14] of the same compound?
**A.** The T-C was 9.3 days.

**Q.** And the “Time for median tumor to reach 1000 mg” value [12, 14]?
**A.** Its value is 25.7 days.

**Q.** And the Comments [12, 15]?
**A.** The Comments was “HDT active”.

**Q.** And the Log10 cell kill [12, 15]?
**A.** The Log10 cell kill was 1.3.

**Q.** What about the T-C [12, 15] of the same compound?
**A.** The T-C was 9.8 days.

**Q.** What about the “Time for median tumor to reach 1000 mg” value [12, 15] of the same compound?
**A.** Its value is 26.2 days.

**Q.** With CC[C@@]1(O)C(=O)OCc2c1cc1n(c2=O)Cc2cc3ccccc3nc2-1 [CPT, camptothecin] as the compound, how does the “% ILS” value ([1]; P388, agent s.c.) read?
**A.** Its value is 82%.

**Q.** What about the “Comment (chemosensitivity of P388/CPT)” value ([3]; agent s.c.) of the same compound?
**A.** The value was “resistant”.

**Q.** What about the “% ILS” value ([3]; agent s.c.) of the same compound?
**A.** The value was 0%.

**Q.** For COc1cccc2c1C(=O)c1c(O)c3c(c(O)c1C2=O)C[C@@](O)(C(=O)CO)C[C@@H]3O[C@H]1C[C@H](N)[C@H](O)[C@H](C)O1 [doxorubicin], which tumor free survivors ([5]; doxorubicin i.v. single agent at HNTD 20.0 mg/kg, days 6, 9) is on record?
**A.** The tumor free survivors was 4/5.

**Q.** And the “HNTD Dose” value ([5]; doxorubicin i.v. single agent, days 6, 9)?
**A.** The value was 20.0 mg/kg.

**Q.** And the “% ILS” value ([1]; P388, agent i.v.)?
**A.** Its value is 122%.

**Q.** And the “Comment (chemosensitivity of P388/CPT)” value ([3]; agent i.v.)?
**A.** Its value is “sensitive”.

**Q.** And the “% ILS” value ([3]; agent i.v.)?
**A.** Its value is 180%.

**Q.** What about the Comments [12, 16] of the same compound?
**A.** The Comments was “Active”.

**Q.** And the Log10 cell kill [12, 16]?
**A.** The Log10 cell kill was 1.0.

**Q.** What about the T-C [12, 16] of the same compound?
**A.** The T-C was 7.5 days.

**Q.** And the “Time for median tumor to reach 1000 mg” value [12, 16]?
**A.** The value was 23.9 days.

**Q.** And the Comments [12, 17]?
**A.** Its Comments is “Active”.

**Q.** What about the Log10 cell kill [12, 17] of the same compound?
**A.** Its Log10 cell kill is 1.2.

**Q.** And the T-C [12, 17]?
**A.** The T-C was 9.5 days.

**Q.** What about the “Time for median tumor to reach 1000 mg” value [12, 17] of the same compound?
**A.** Its value is 25.9 days.

**Q.** What about the Comments [12, 18] of the same compound?
**A.** The Comments was “HDT highly active”.

**Q.** What about the tumor free survivors [12, 18] of the same compound?
**A.** Its tumor free survivors is “*There are no values presented because 4 out of 5 animals tested were tumor free survivors”.
